Measured values taken from patent publication US5871779A, “Treatment of arthropathies with vanadate compounds or analogues thereof” (Mount Sinai Hospital Corporation, priority 1996, dated 1999).

Experiments:
fos = fos / c-fos mRNA expression in chondrocytes (Northern blot); type: cell-based, bovine; details: stimulus alone; H2 O2 30, 60 and 90 minutes; IL-1, PMA or AA (3 μM) 1 hour
Protocol: (§1) The cytokine interleukin 1 (IL 1) has been used to identify the intermediate second messengers which regulate the expression of fos and jun.
In order to elucidate this possibility, the effect of DPI on fos and jun mRNA levels induced by IL 1 was investigated. RNA from chondrocytes treated with IL 1 in the presence and absence of DPI were analyzed by Northern blot analysis using either fos or collagenase cDNA probes.
Since superoxides are rapidly converted to hydrogen peroxide in the cell by superoxide dismutase, whether hydrogen peroxide could mimic the effect of IL 1 in the induction of fos expression was investigated. RNA was extracted from chondrocytes (Kandel et al. supra) treated with H2 O2 for 30, 60 and 90 minutes and examined by Northern blot analysis using a fos cDNA probe.
Bovine articular chondrocytes were isolated and plated as previously described (Kandel R. A. et al. Biochim. Biophys. Acta. 1053, 130-134, 1990). […] The amount of ^3 H-AA liberated into the supernatant was determined. To measure PGE2 production, chondrocytes were incubated for 6 hours in Ham's F12 medium, either alone or with IL 1 or PMA. […] In order to examine the expression of c-fos and c-jun, chondrocytes were incubated for 1 hour in the presence of IL-1, PMA or AA (3 μM). Chondrocytes were washed in PBS and the total RNA extracted as previously described (Cruz. et al, 1991, Biochem. J. 277, 327-330). RNA samples were run on formaldehyde agarose gels and transferred to nylon membrane for northern analysis using cDNA probes for c-fos and c-jun.
The RNA was extracted and examined by Northern blot analysis using cDNA probes for c-fos and collagenase.

jun = jun / c-jun mRNA expression in chondrocytes (Northern blot); type: cell-based, bovine; details: stimulus alone, 1 hour
Text: as §1
Although IL 1 stimulated superoxide production, it was not known whether IL 1 induced fos and jun expression was dependent on the production of superoxides. In order to elucidate this possibility, the effect of DPI on fos and jun mRNA levels induced by IL 1 was investigated. RNA from chondrocytes treated with IL 1 in the presence and absence of DPI were analyzed by Northern blot analysis using either fos or collagenase cDNA probes. […] Similar data has been obtained for IL 1 induced jun expression. Furthermore, inhibition of fos and jun expression by DPI was sufficient to suppress IL 1 induced and constitutive collagenase expression.
The effect of orthovanadate and N-acetylcysteine on fos, jun and collagenase expression were examined. Bovine articular chondrocytes were isolated and plated as previously described (Kandel R. A. et al. Biochim. Biophys. Acta. 1053, 130-134, 1990). In order to determine the effect of orthovanadate on IL 1 and PMA (phorbol ester) induced responses, chondrocytes were incubated with orthovanadate (100 μM) for 2 hours before stimulation with IL 1 (10 ng/ml) or PMA ([…]). Collagenase production was determined by incubating chondrocytes for 24 hours with IL 1 or PMA and the cell conditioned medium was assayed for collagenase activity using an ELISA procedure as described previously (Kandel et al. supra). PLA2 activity was measured by incorporating ^3 H-arachidonic acid (^3 H-AA) into the cells and then incubating the cells with medium containing 1 mg/ml BSA, either alone or in the presence of IL 1 or PMA, for 10 min. as previously described (Conquer, J. A. […], Biochim. Biophys. Acta. 1134, 1-6). The amount of ^3 H-AA liberated into the supernatant was determined. […] The supernatant was analyzed by RIA using an antibody specific for PGE2 (Dr. S. A. Jones, Mount Sinai Hospital, Toronto, Canada). […]

c-fos = assay: TNFα and bFGF induced c-fos mRNA in chondrocytes (Northern blot); type: cell-based, bovine; details: 100 μM, 2 hours preincubation
Protocol: Chondrocyte cultures were stimulated with H2 O2 (100 μM) at different time points as indicated. […] Chondrocyte cultures were preincubated with NAC (30 mM) or Asc (100 μM) for 2 hours before the addition of bFGF (10 ng/ml) or TNFα (30 ng/ml) for 30 minutes. Both human recombinant TNFα and bFGF were dissolved in phosphate buffered saline with 0.1% bovine serum albumin. NAC and Asc were first dissolved in Ham's F12 medium containing 5% (v/v) fetal bovine serum, then neutralized with sodium hydroxide. Total RNA from bovine articular chondrocytes was isolated and the c-fos mRNA levels were determined by Northern blot analysis as described herein. The blots were subsequently stripped of DNA and re-probed with ^32 p-labelled rat β tubulin cDNA.
Chondrocyte cultures were pretreated with DPI (2 μM) for 30 minutes before the addition of TNFα (30 ng/ml) or bFGF (10 ng/ml) for 30 minutes. Measurements of c-fos and tubulin mRNA levels were as described in Example 11.

carcinogenesis = details: G. Shklar et al.; cited from earlier work
collagenase = collagenase production by chondrocytes (ELISA); type: cell-based, bovine; details: stimulus alone, 24 hours
Protocol: The effect of orthovanadate and N-acetylcysteine on fos, jun and collagenase expression were examined. Bovine articular chondrocytes were isolated and plated as previously described (Kandel R. A. et al. Biochim. Biophys. Acta. 1053, 130-134, 1990). In order to determine the effect of orthovanadate on IL 1 and PMA (phorbol ester) induced responses, chondrocytes were incubated with orthovanadate (100 μM) for 2 hours before stimulation with IL 1 (10 ng/ml) or PMA ([…]). Collagenase production was determined by incubating chondrocytes for 24 hours with IL 1 or PMA and the cell conditioned medium was assayed for collagenase activity using an ELISA procedure as described previously (Kandel et al. supra). PLA2 activity was measured by incorporating ^3 H-arachidonic acid (^3 H-AA) into the cells and then incubating the cells with medium containing 1 mg/ml BSA, either alone or in the presence of IL 1 or PMA, for 10 min. as previously described (Conquer, J. A. […], Biochim. Biophys. Acta. 1134, 1-6). The amount of ^3 H-AA liberated into the supernatant was determined. To measure PGE2 production, chondrocytes were incubated for 6 hours in Ham's F12 medium, either alone or with IL 1 or PMA. The supernatant was analyzed by RIA using an antibody specific for PGE2 (Dr. S. A. Jones, Mount Sinai Hospital, Toronto, Canada). In order to examine the expression of c-fos and c-jun, chondrocytes were incubated for 1 hour in the presence of IL-1, PMA or AA (3 μM). Chondrocytes were washed in PBS and the total RNA extracted as previously described (Cruz. et al, 1991, Biochem. J. 277, 327-330). RNA samples were run on formaldehyde agarose gels and transferred to nylon membrane for northern analysis using cDNA probes for c-fos and c-jun.

PLA2 = assay: release of 3H-arachidonic acid from chondrocytes (PLA2 activity); type: cell-based, bovine; details: stimulus alone, 10 min
Protocol: (§2) The effect of orthovanadate and N-acetylcysteine on fos, jun and collagenase expression were examined. Bovine articular chondrocytes were isolated and plated as previously described (Kandel R. A. et al. Biochim. Biophys. Acta. 1053, 130-134, 1990). In order to determine the effect of orthovanadate on IL 1 and PMA (phorbol ester) induced responses, chondrocytes were incubated with orthovanadate (100 μM) for 2 hours before stimulation with IL 1 (10 ng/ml) or PMA ([…]). Collagenase production was determined by incubating chondrocytes for 24 hours with IL 1 or PMA and the cell conditioned medium was assayed for collagenase activity using an ELISA procedure as described previously (Kandel et al. supra). PLA2 activity was measured by incorporating ^3 H-arachidonic acid (^3 H-AA) into the cells and then incubating the cells with medium containing 1 mg/ml BSA, either alone or in the presence of IL 1 or PMA, for 10 min. as previously described (Conquer, J. A. […], Biochim. Biophys. Acta. 1134, 1-6). The amount of ^3 H-AA liberated into the supernatant was determined. To measure PGE2 production, chondrocytes were incubated for 6 hours in Ham's F12 medium, either alone or with IL 1 or PMA. The supernatant was analyzed by RIA using an antibody specific for PGE2 (Dr. S. A. Jones, Mount Sinai Hospital, Toronto, Canada). […]

PGE2 = PGE2 production by chondrocytes (RIA); type: cell-based, bovine; details: stimulus alone, 6 hours
Protocol: as §2

KB8, KB8-5 and KB85-11 = details: stated as background; cited from earlier work
P388 (WT) = assay: MTT cytotoxicity assay, P388 (WT); type: cell-based, murine; details: Mus musculus, P388, 72 h, read-out: IC50 Value
Protocol: (§3) The relative cytotoxicity of various compounds on tumor cell lines was investigated as follows. Cytotoxicity was measured by the MTT microculture tetrazolium colorimetric assay for all cell lines. The relative cytotoxicity of Na3 VO4 and VOSO4 was investigated using the following tumor cell lines: P388(WT) murine leukemia, P388 (ADR) murine leukemia, Lewis murine lung, MCF7 (WT) human breast, […] human lung, K562 human erythroleukemia, A431 human epidermal, LS180 human colon and SK-OV-3 human ovarian. The relative cytotoxicity of doxorubicin, Na3 VO4 and VOSO4 was investigated using the following tumor cell lines: P388(WT) murine leukemia, P388 (ADR) murine leukemia, MCF7(WT) human breast and MCF7 (ADR) human breast. The relative cytotoxicity of BMOV, BEOV and naglivan was investigated using the following tumor cell lines: P388(WT) murine leukemia, P388 (ADR) murine leukemia, Lewis murine lung, H460 human lung, K562 human erythroleukemia, and SK-OV-3 human ovarian.
(§4) The cells were plated (number of cells/well was different from cell line to cell depending on the dividing rate) in a 96-well microculture plate 24 hours prior to the delivery of the vanadium compounds. Serial concentrations of solutions of the test compounds (0.05-100 μM) were delivered to the corresponding wells. A blank column (without cells) and a control column (with cells without vanadium) were left. The cells were incubated for 72 hours continuously. An MTT solution was added to each well after this incubation period and the cells were incubated for 4 more hours for the completion of the dyeing process. The medium was removed find DMSO was added to each well. The absorbance of each well was read with a Titertek Multiskan (310C) spectrophotometer at 570 nm. The percentage of the absorbance of each vanadium concentration relative to the control calculated and the value of the 50% growth inhibition concentration (IC50) was obtained from the % control versus concentration plot. Each assay was repeated three times and the reported IC50 values were the mean of these three runs.

P388 (ADR) = assay: MTT cytotoxicity assay, P388 (ADR); type: cell-based, murine; details: Mus musculus, P388/ADR, 72 h, read-out: IC50 Value
Protocol: as §3, §4

MCF7 (WT) = assay: MTT cytotoxicity assay, MCF7 (WT); type: cell-based, human; details: Homo sapiens, MCF7, 72 h, read-out: IC50 Value
Protocol: as §3, §4

MCF7 (ADR) = assay: MTT cytotoxicity assay, MCF7 (ADR); type: cell-based, human; details: Homo sapiens, NCI/ADR-RES, 72 h, read-out: IC50 Value
Protocol: as §3, §4

chondrocytes = assay: TNFα and bFGF induced ROS production in chondrocytes (DHR fluorescence); type: cell-based; details: 4 hours in the presence of DHR
Protocol: With time, DHR by itself caused a shift in fluorescence to the right as shown in panels a to c. A dotted line was drawn through the mean fluorescence intensity of the control (panel c) with DHR alone for 4 hours. After incubation with TNFα or bFGF for 4 hours in the presence of DHR, there was a further shift in logarithmic fluorescence intensity as indicated in panel d or f. In panels e and g, DPI abolished the fluorescent shift stimulated by TNPα and bFGF respectively.

## CCCCC/C=C\C/C=C\C/C=C\C/C=C\CCCC(=O)O [AA, arachidonic acid]
fos
  stimulation of fos / c-fos expression: stimulated
jun
  stimulation of c-jun expression: stimulated

## O=C1O[C@H]([C@@H](O)CO)C(O)=C1O [Asc, ascorbic acid]
c-fos
  inhibition of TNFα and bFGF induced c-fos mRNA levels: inhibit
carcinogenesis
  anticancer activity: anticancer activity

## CCCCCCCCCCCCCC(=O)O[C@@H]1[C@@H](C)[C@@]2(O)[C@@H](C=C(CO)C[C@]3(O)C(=O)C(C)=C[C@@H]23)[C@@H]2C(C)(C)[C@]12OC(C)=O [PMA, reference compound]
fos
  stimulation of fos / c-fos expression: stimulated
jun
  stimulation of c-jun expression: stimulated
collagenase
  induction of collagenase production: induced
PLA2
  induction of 3H-AA release: induced
PGE2
  induction of PGE2 production: induced

## COc1cc2c(c(OC)c1OC)-c1ccc(OC)c(=O)cc1[C@@H](NC(C)=O)CC2 [colchicine]
KB8, KB8-5 and KB85-11
  killing of drug resistant cell lines by conventional chemotherapeutic agents: not killed

## COc1cccc2c1C(=O)c1c(O)c3c(c(O)c1C2=O)C[C@@](O)(C(=O)CO)C[C@@H]3O[C@H]1C[C@H](N)[C@H](O)[C@H](C)O1 [doxorubicin, reference compound]
P388 (WT)
  IC50: 0.023 µM
P388 (ADR)
  IC50: 3.77 µM
MCF7 (WT)
  IC50: 0.492 µM
MCF7 (ADR)
  IC50: 25.7 µM
KB8, KB8-5 and KB85-11
  killing of drug resistant cell lines by conventional chemotherapeutic agents: not killed

## CC[C@]1(O)C[C@@H]2CN(CCc3c([nH]c4ccccc34)[C@@](C(=O)OC)(c3cc4c(cc3OC)N(C)[C@H]3[C@@](O)(C(=O)OC)[C@H](OC(C)=O)[C@]5(CC)C=CCN6CC[C@]43[C@@H]65)C2)C1 [vinblastine]
KB8, KB8-5 and KB85-11
  killing of drug resistant cell lines by conventional chemotherapeutic agents: not killed

## TNFα
chondrocytes
  shift in logarithmic fluorescence intensity (ROS production): further shift

## bFGF: human recombinant bFGF
chondrocytes
  shift in logarithmic fluorescence intensity (ROS production): further shift
